# Measurements: PMC8557474, “Reliability of the AR-CALUX®In Vitro Method Used to Detect Chemicals with (Anti)Androgen Activity: Results of an International Ring Trial” (Toxicological Sciences, 2021)
# Experiments:
# [1] = system: androgen receptor; conditions: ref OECD, 2020b; cited from earlier work
# [2] = biological target: T1, human androgen receptor (hAR) (Homo sapiens, UniProt P10275); assay: AR-CALUX antagonist assay (medium spiked with DHT at EC50); assay type: cell-based
# T1 construct: host or cells: U2-OS human osteosarcoma cells (ATCC HTB 96), stably transfected (AR-CALUX cell line)
# T1 sequence (P10275 1-920): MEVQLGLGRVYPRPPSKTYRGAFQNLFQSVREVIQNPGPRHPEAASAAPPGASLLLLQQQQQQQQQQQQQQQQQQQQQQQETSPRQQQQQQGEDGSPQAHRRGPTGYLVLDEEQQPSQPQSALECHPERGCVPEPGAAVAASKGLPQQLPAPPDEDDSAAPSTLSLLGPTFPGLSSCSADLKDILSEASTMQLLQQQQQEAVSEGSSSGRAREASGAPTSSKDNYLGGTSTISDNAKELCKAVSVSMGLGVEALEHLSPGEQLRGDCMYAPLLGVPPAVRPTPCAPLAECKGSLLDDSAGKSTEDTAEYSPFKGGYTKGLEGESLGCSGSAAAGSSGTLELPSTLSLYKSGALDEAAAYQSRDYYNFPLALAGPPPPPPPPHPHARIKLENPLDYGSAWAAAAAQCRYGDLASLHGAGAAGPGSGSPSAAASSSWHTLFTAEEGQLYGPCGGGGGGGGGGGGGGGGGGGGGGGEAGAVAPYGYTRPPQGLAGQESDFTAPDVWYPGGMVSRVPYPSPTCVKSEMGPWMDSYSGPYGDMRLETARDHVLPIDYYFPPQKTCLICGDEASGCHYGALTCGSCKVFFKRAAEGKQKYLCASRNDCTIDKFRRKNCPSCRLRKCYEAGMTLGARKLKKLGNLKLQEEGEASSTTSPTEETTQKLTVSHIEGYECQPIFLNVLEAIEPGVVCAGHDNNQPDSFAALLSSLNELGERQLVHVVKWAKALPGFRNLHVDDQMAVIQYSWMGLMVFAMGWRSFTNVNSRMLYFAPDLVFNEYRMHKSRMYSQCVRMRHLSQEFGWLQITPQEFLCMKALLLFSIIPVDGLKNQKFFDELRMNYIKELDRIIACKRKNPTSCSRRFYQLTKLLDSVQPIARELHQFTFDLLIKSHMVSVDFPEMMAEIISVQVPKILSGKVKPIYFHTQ
# Excerpt: (§1) The AR-CALUX® cell line was created by BioDetection Systems (BDS). It can be purchased from BDS with a license (https://www.biodetectionsystems.com). The human osteosarcoma cell line U2-OS (ATCC HTB 96) was transfected with 2 constructs: pSG5-neo-hAR carrying the cDNA of a human androgen receptor (hAR) under a constitutive promoter, and, a luciferase reporter gene which is preceded by a triple tandem of AREs in front of a TATA box (3x ARE Luc). […] The AR-CALUX® cell line was obtained from the test method developer BDS. EURL ECVAM prepared a master cell bank and a large working cell bank which were tested for the absence of mycoplasma, bacteria, fungi, and yeast and for the absence of Hepatitis B and C and HIV. In addition, to verifying the authenticity of the cell line, Short Tandem Repeat (STR) profiling was carried out to confirm the test system to be U2-OS cells. […] The laboratories were requested, at the end of each part of the study (Parts 1, 2, and 3), to perform a mycoplasma test of their choice. Additional aliquots were sent to EURL ECVAM for a reanalysis of authenticity.
# (§2) Subsequently, the test chemical was assessed with a prescreen run (dilution steps of 10) and simultaneously with the quantitative cytotoxicity test to determine (1) cytotoxic concentrations, (2) the response, and (3) the appropriate dose range to be tested. […] The cytotoxicity test was performed once more. Test chemicals were diluted in media and consisted of 8 serial dilutions. Each dilution was tested in triplicate.
# (§3) Each experiment (run) was comprised of a maximum of 6 plates. The first plate would contain 8 serial dilutions of the reference chemical DHT (for agonism) or Flutamide (for antagonism), while the positive and negative controls were added at fixed concentrations. In addition, a solvent control was added (medium without the chemical but with DMSO 0.1%).
# For the antagonist assay, the medium was supplemented with DHT at EC50 concentration (standard assay). […] Each antagonist assay was accompanied by a specificity control test carried out on the same plate.
# A. Positive (competitive antagonist) when the relative induction (Yc) of the test item is ≤ 80% (REF RPC80) for two or more consecutive concentrations and […]
# [3] = system: androgen receptor; parameters: method as in Park et al., 2021; conditions: ref Park et al., 2021; cited from earlier work
# [4] = biological target: T1, human androgen receptor (hAR); assay: cell-based; assay type: cell-based
# Excerpt: as §1, §2, §3
# A. Positive when the relative induction (Yc) of the test item is ≥ 10% (REF RPC10) for two or more consecutive concentrations.
# [5] = system: androgen receptor; parameters: method as in Kleinstreuer et al., 2017; conditions: ref Kleinstreuer et al., 2017; cited from earlier work
# [6] = system: AR-CALUX cell line (U2-OS); assay: Cytotoxicity in the AR-CALUX assay (LDH leakage and visual inspection); assay type: cell-based, human; conditions: agonist assay
# Protocol: Each test chemical was firstly tested at the highest soluble concentration, starting from 50 mg/ml. Subsequently, the test chemical was assessed with a prescreen run (dilution steps of 10) and simultaneously with the quantitative cytotoxicity test to determine (1) cytotoxic concentrations, (2) the response, and (3) the appropriate dose range to be tested. […] The cytotoxicity test was performed once more. Test chemicals were diluted in media and consisted of 8 serial dilutions. Each dilution was tested in triplicate.
# Cytotoxicity was evaluated in both the agonist and antagonist assay and was carried out with the LDH test which can be performed in parallel to the agonist/antagonist assay and for which no extra plates have to be prepared. A drawback of this test is that the measurement will occur when leakage happens, ie, when the cell wall is degrading and thus the cell is dead. Early events in the onset of cell death cannot be measured with this test. For this reason, the AR-CALUX® method stated that the cytotoxicity of the exposed cells should also be assessed visually (microscopy).
# [7] = system: androgen receptor; parameters: method as in Park et al., 2021; conditions: ref Park et al., 2021; cited from earlier work; remark: listed apart in the source
# [8] = system: androgen receptor; conditions: tested at high concentrations (10 µM); ref Sonneveld et al., (2005); cited from earlier work
smiles,measurement,setting,value
CC(C)(O)C(=O)Nc1ccc([N+](=O)[O-])c(C(F)(F)F)c1 [Hydroxyflutamide],AR-EcoScreen agonist result in words,[1],negative
same,"Antagonist classification per run, Lab 1",[2],P P P
same,"Antagonist classification per run, Lab 2",[2],P P P
same,"Antagonist classification per run, Lab 3",[2],P P P
same,"Antagonist classification per run, Lab 4",[2],P P P
same,22Rv1/MMTV/GR-KO TA agonist result in words,[3],positive
same,AR-CALUX agonist result in words,[4],negative
same,"Agonist classification per run, Lab 1",[4],N N N
same,"Agonist classification per run, Lab 2",[4],N N N
same,"Agonist classification per run, Lab 3",[4],N N N
same,"Agonist classification per run, Lab 4",[4],N N N
CC(=O)O[C@]1(C(C)=O)CC[C@H]2[C@@H]3C=C(Cl)C4=CC(=O)[C@@H]5C[C@@H]5[C@]4(C)[C@H]3CC[C@@]21C [Cyproterone acetate],AR-Reference list agonist result in words,[5],weak positive
same,highest nontoxic concentration,[6],3 µM
C[C@]12CC[C@@H]3c4ccc(O)cc4CC[C@H]3[C@@H]1CC[C@@H]2O [17β-Estradiol],AR-EcoScreen agonist result in words,[1],AR agonist activity
same,22Rv1/MMTV/GR-KO TA agonist result in words,[3],AR agonist activity
same,22Rv1/MMTV/GR-KO TA antagonist result in words,[7],AR antagonist response
CC(=O)[C@H]1CC[C@H]2[C@@H]3CCC4=CC(=O)CC[C@]4(C)[C@H]3CC[C@]12C [Progesterone],22Rv1/MMTV/GR-KO TA agonist result in words,[3],positive
same,RTA in comparison to DHT,[8],36%
